Assay results published in the NIST ThermoML archive (doi:10.1021/acs.jced.8b00662).
± gives the expanded uncertainty stated by the source.

Experiment: xn = mol fraction of the nth substance listed
Conditions: 100 kPa, Liquid; for mass density: Vibrating tube method; for viscosity: Falling or rolling sphere viscometry

## CC(C)C1CCCCC1 [(1-methylethyl)cyclohexane] + c1ccc2c(c1)CCCC2
318.15 K, x2 = 0
  mass density: 782.59 ± 0.95 kg/m3
318.15 K, x2 = 0.0995
  mass density: 797.11 ± 0.97 kg/m3
318.15 K, x2 = 0.1995
  mass density: 812.17 ± 0.98 kg/m3
318.15 K, x2 = 0.299
  mass density: 827.63 ± 1 kg/m3
318.15 K, x2 = 0.4004
  mass density: 843.82 ± 1 kg/m3
318.15 K, x2 = 0.5006
  mass density: 860.23 ± 1 kg/m3
318.15 K, x2 = 0.5995
  mass density: 876.81 ± 1.1 kg/m3
318.15 K, x2 = 0.7015
  mass density: 894.39 ± 1.1 kg/m3
318.15 K, x2 = 0.7991
  mass density: 911.63 ± 1.1 kg/m3
318.15 K, x2 = 0.9006
  mass density: 930.21 ± 1.1 kg/m3
323.15 K, x2 = 0
  viscosity: 0.738 ± 0.016 mPa·s
  mass density: 778.66 ± 0.95 kg/m3
323.15 K, x2 = 0.0995
  viscosity: 0.761 ± 0.016 mPa·s
  mass density: 793.18 ± 0.96 kg/m3
323.15 K, x2 = 0.1995
  viscosity: 0.795 ± 0.017 mPa·s
  mass density: 808.24 ± 0.98 kg/m3
323.15 K, x2 = 0.299
  viscosity: 0.831 ± 0.018 mPa·s
  mass density: 823.7 ± 1 kg/m3
323.15 K, x2 = 0.4004
  viscosity: 0.875 ± 0.019 mPa·s
  mass density: 839.88 ± 1 kg/m3
323.15 K, x2 = 0.5006
  viscosity: 0.93 ± 0.02 mPa·s
  mass density: 856.3 ± 1 kg/m3
323.15 K, x2 = 0.5995
  viscosity: 0.982 ± 0.021 mPa·s
  mass density: 872.87 ± 1.1 kg/m3
323.15 K, x2 = 0.7015
  viscosity: 1.05 ± 0.022 mPa·s
  mass density: 890.45 ± 1.1 kg/m3
323.15 K, x2 = 0.7991
  viscosity: 1.123 ± 0.024 mPa·s
  mass density: 907.69 ± 1.1 kg/m3
323.15 K, x2 = 0.9006
  viscosity: 1.219 ± 0.026 mPa·s
  mass density: 926.26 ± 1.1 kg/m3
328.15 K, x2 = 0
  viscosity: 0.698 ± 0.015 mPa·s
  mass density: 774.72 ± 0.94 kg/m3
328.15 K, x2 = 0.0995
  viscosity: 0.72 ± 0.015 mPa·s
  mass density: 789.24 ± 0.96 kg/m3
328.15 K, x2 = 0.1995
  viscosity: 0.751 ± 0.016 mPa·s
  mass density: 804.3 ± 0.98 kg/m3
328.15 K, x2 = 0.299
  viscosity: 0.784 ± 0.017 mPa·s
  mass density: 819.76 ± 0.99 kg/m3
328.15 K, x2 = 0.4004
  viscosity: 0.825 ± 0.018 mPa·s
  mass density: 835.94 ± 1 kg/m3
328.15 K, x2 = 0.5006
  viscosity: 0.875 ± 0.019 mPa·s
  mass density: 852.35 ± 1 kg/m3
328.15 K, x2 = 0.5995
  viscosity: 0.922 ± 0.02 mPa·s
  mass density: 868.92 ± 1.1 kg/m3
328.15 K, x2 = 0.7015
  viscosity: 0.985 ± 0.021 mPa·s
  mass density: 886.5 ± 1.1 kg/m3
328.15 K, x2 = 0.7991
  viscosity: 1.051 ± 0.022 mPa·s
  mass density: 903.74 ± 1.1 kg/m3
328.15 K, x2 = 0.9006
  viscosity: 1.137 ± 0.024 mPa·s
  mass density: 922.3 ± 1.1 kg/m3
333.15 K, x2 = 0
  viscosity: 0.661 ± 0.014 mPa·s
  mass density: 770.77 ± 0.94 kg/m3
333.15 K, x2 = 0.0995
  viscosity: 0.681 ± 0.015 mPa·s
  mass density: 785.29 ± 0.95 kg/m3
333.15 K, x2 = 0.1995
  viscosity: 0.711 ± 0.015 mPa·s
  mass density: 800.35 ± 0.97 kg/m3
333.15 K, x2 = 0.299
  viscosity: 0.741 ± 0.016 mPa·s
  mass density: 815.81 ± 0.99 kg/m3
333.15 K, x2 = 0.4004
  viscosity: 0.779 ± 0.017 mPa·s
  mass density: 831.99 ± 1 kg/m3
333.15 K, x2 = 0.5006
  viscosity: 0.825 ± 0.018 mPa·s
  mass density: 848.4 ± 1 kg/m3
333.15 K, x2 = 0.5995
  viscosity: 0.869 ± 0.019 mPa·s
  mass density: 864.97 ± 1 kg/m3
333.15 K, x2 = 0.7015
  viscosity: 0.926 ± 0.02 mPa·s
  mass density: 882.54 ± 1.1 kg/m3
333.15 K, x2 = 0.7991
  viscosity: 0.986 ± 0.021 mPa·s
  mass density: 899.78 ± 1.1 kg/m3
333.15 K, x2 = 0.9006
  viscosity: 1.065 ± 0.023 mPa·s
  mass density: 918.35 ± 1.1 kg/m3
338.15 K, x2 = 0
  viscosity: 0.628 ± 0.013 mPa·s
  mass density: 766.81 ± 0.93 kg/m3
338.15 K, x2 = 0.0995
  viscosity: 0.647 ± 0.014 mPa·s
  mass density: 781.34 ± 0.95 kg/m3
338.15 K, x2 = 0.1995
  viscosity: 0.674 ± 0.014 mPa·s
  mass density: 796.4 ± 0.97 kg/m3
338.15 K, x2 = 0.299
  viscosity: 0.703 ± 0.015 mPa·s
  mass density: 811.85 ± 0.98 kg/m3
338.15 K, x2 = 0.4004
  viscosity: 0.737 ± 0.016 mPa·s
  mass density: 828.03 ± 1 kg/m3
338.15 K, x2 = 0.5006
  viscosity: 0.78 ± 0.017 mPa·s
  mass density: 844.44 ± 1 kg/m3
338.15 K, x2 = 0.5995
  viscosity: 0.82 ± 0.017 mPa·s
  mass density: 861.01 ± 1 kg/m3
338.15 K, x2 = 0.7015
  viscosity: 0.873 ± 0.019 mPa·s
  mass density: 878.57 ± 1.1 kg/m3
338.15 K, x2 = 0.7991
  viscosity: 0.928 ± 0.02 mPa·s
  mass density: 895.81 ± 1.1 kg/m3
338.15 K, x2 = 0.9006
  viscosity: 0.999 ± 0.021 mPa·s
  mass density: 914.37 ± 1.1 kg/m3
343.15 K, x2 = 0
  viscosity: 0.598 ± 0.013 mPa·s
  mass density: 762.84 ± 0.93 kg/m3
343.15 K, x2 = 0.0995
  viscosity: 0.616 ± 0.013 mPa·s
  mass density: 777.38 ± 0.95 kg/m3
343.15 K, x2 = 0.1995
  viscosity: 0.641 ± 0.014 mPa·s
  mass density: 792.44 ± 0.96 kg/m3
343.15 K, x2 = 0.299
  viscosity: 0.668 ± 0.014 mPa·s
  mass density: 807.89 ± 0.98 kg/m3
343.15 K, x2 = 0.4004
  viscosity: 0.7 ± 0.015 mPa·s
  mass density: 824.07 ± 1 kg/m3
343.15 K, x2 = 0.5006
  viscosity: 0.74 ± 0.016 mPa·s
  mass density: 840.47 ± 1 kg/m3
343.15 K, x2 = 0.5995
  viscosity: 0.776 ± 0.017 mPa·s
  mass density: 857.04 ± 1 kg/m3
343.15 K, x2 = 0.7015
  viscosity: 0.825 ± 0.018 mPa·s
  mass density: 874.6 ± 1.1 kg/m3
343.15 K, x2 = 0.7991
  viscosity: 0.875 ± 0.019 mPa·s
  mass density: 891.84 ± 1.1 kg/m3
343.15 K, x2 = 0.9006
  viscosity: 0.942 ± 0.02 mPa·s
  mass density: 910.39 ± 1.1 kg/m3
